Results taken from US20110301142A1, “ANTAGONISTS OF LYSOPHOSPHATIDIC ACID RECEPTORS” (priority 2008, published 2011).

Legend:
human LPA1 = target: T1, human LPA1 (Homo sapiens, UniProt Q92633); assay: LPA1 calcium flux assay (HLPA1 Ca Flux); type: cell-based; conditions: Human LPA1 expressing CHO cells, stimulated with 10 nM LPA
T1 construct: the full-length cDNA for human LPA1 was obtained by PCR of the reverse transcription reaction; expressed in transfected cells
Procedure, shortened: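 CHO cells stably expressing cloned human LPA1, serum-starved overnight and loaded with Calcium 4 dye, were preincubated 30 min at room temperature with compound. Cells were then challenged with 10 nM LPA and intracellular Ca2+ measured; IC50 values came from titration curves.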

human LPA3 = target: T2, human LPA3 (Homo sapiens, UniProt Q9UBY5); assay: LPA3 calcium flux assay; type: cell-based; conditions: Human LPA3 expressing CHO cells, stimulated with 10 nM LPA; read-out: HLPA3 Ca Flux IC50
T2 construct: The full-length cDNA fragment for human LPA3 was obtained by PCR from the vector; expressed in transfected cells; cDNA from the Missouri S&T cDNA Resource Center
T2 sequence (Q9UBY5 1-353): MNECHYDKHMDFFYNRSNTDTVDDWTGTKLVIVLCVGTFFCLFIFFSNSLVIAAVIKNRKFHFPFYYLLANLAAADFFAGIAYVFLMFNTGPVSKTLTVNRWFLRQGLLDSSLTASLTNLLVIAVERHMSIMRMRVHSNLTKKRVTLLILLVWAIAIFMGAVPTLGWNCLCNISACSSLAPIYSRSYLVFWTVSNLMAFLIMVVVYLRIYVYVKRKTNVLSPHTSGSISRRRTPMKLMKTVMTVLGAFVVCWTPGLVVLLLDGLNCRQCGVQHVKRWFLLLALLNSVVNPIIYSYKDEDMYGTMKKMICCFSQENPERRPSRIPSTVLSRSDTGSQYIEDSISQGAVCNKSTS
Procedure, shortened: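 Stably transfected CHO cells, serum-starved overnight, loaded with Calcium 4 dye 1 h at 37 °C in HBSS/20 mM Hepes with 0.3% fatty-acid-free HSA. Compounds preincubated 30 min at room temperature, then cells stimulated with 10 nM LPA; intracellular Ca2+ read by fluorescence; IC50 from titration curves.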

T1 sequence (Q92633 whole entry): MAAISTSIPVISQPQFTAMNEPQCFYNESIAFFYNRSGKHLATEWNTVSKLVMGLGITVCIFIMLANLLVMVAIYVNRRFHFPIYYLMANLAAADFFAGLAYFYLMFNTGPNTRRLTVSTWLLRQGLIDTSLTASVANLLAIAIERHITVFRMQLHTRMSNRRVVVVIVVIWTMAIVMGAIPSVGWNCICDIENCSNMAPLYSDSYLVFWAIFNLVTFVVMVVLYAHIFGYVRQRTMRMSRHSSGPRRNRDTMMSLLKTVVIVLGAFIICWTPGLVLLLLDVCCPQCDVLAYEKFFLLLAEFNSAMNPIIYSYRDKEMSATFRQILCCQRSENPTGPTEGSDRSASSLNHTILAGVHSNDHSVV

Cc1noc(-c2ccc(Cc3ccc(CC(=O)O)cc3)cc2)c1NC(=O)OC(C)c1ccccc1Cl (centres unmarked) [Compound 1-20, [4-(4-{4-[1-(2-Chloro-phenyl)-ethoxycarbonylamino]-3-methyl-isoxazol-5-yl}-benzyl)-phenyl]-acetic acid]
IC50 (human LPA1): < 300 nM
IC50 (human LPA3): 1 to 50 µM
